Measurements published in ChEMBL document CHEMBL1212812, “Multi-target spectral moment QSAR versus ANN for antiparasitic drugs against different parasite species” (Bioorg Med Chem, 2010).

Tested on: Plasmodium falciparum
Test: Antimicrobial activity against Plasmodium falciparum
Type: functional, organism-based

| IC50 | SMILES |
| --- | --- |
| 42 µM | O=C1Nc2ccccc2/C1=C\c1ccc(O)cc1 |
| 214 µM | CC1C2c3ccccc3C(c3ccccc32)C1C(=O)Nc1ccccn1 (configuration not stated) |
| 52 µM | O=C(NCc1ccccc1)C1=CC2c3ccccc3C1c1ccccc12 |
| 17 µM | CC1C2c3ccccc3C(c3ccccc32)C1C[N+](C)(C)C (configuration not stated) |
| 35 µM | CN(C)CC1C2c3ccccc3C(c3ccccc32)C1CO (configuration not stated) |
| 500 µM | CC1C2c3ccccc3C(c3ccccc32)C1C(=O)Nc1ccncc1 (configuration not stated) |
| 49 µM | CC1C2c3ccccc3C(c3ccccc32)C1C(=O)/N=C/N(C)C (configuration not stated) |
| 32 µM | Cn1c2nc3ccccc3c-2cc2c(Br)cccc21 |
| 5 µM | CCc1nc(N)nc(N)c1Cc1ccc(OCc2ccccc2)c(OC)c1 |
| 5 µM | Cn1c2nc3ccccc3c-2cc2cc(F)ccc21 |
| 3 µM | COc1cc(Cc2c(C)nc(N)nc2N)ccc1OCc1ccccc1 |
| 37 µM | CC(=O)/C=C1\C(=O)Nc2ccccc21 |
| 44 µM | CC(C)(C)C(=O)/C=C1\C(=O)Nc2ccccc21 |
| 24 µM | N#C/C(C(N)=O)=C1/C(=O)Nc2ccccc21 |
| 1 µM | CC[C@H]1CN2CCc3c([nH]c4ccc(O)cc34)[C@@H]2C[C@@H]1C[C@H]1c2[nH]c3ccccc3c2CCN1C |
| 2 µM | C=C[C@H]1CN2CCc3c([nH]c4ccc(O)cc34)[C@@H]2C[C@@H]1C[C@H]1c2[nH]c3ccccc3c2CCN1C |
| 5 µM | CC[C@H]1CN2CCc3c([nH]c4cc(O)ccc34)[C@@H]2C[C@@H]1C[C@H]1c2[nH]c3ccccc3c2CCN1C |
| 51 µM | CC1C2c3ccccc3C(c3ccccc32)C1C(=O)/N=N/N(C)C (configuration not stated) |
| 30 µM | CC1C2c3ccccc3C(c3ccccc32)C1CN (configuration not stated) |
| 33 µM | CN(C)/N=N\C(=O)C1C2c3ccccc3C(c3ccccc32)C1C(=O)/N=N/N(C)C (configuration not stated) |
| 34 µM | CN(C)/C=N\C(=O)C1C2c3ccccc3C(c3ccccc32)C1C(=O)/N=C\N(C)C (configuration not stated) |
| 35 µM | NC(=O)C1=CC2c3ccccc3C1c1ccccc12 |
| 32 µM | CN(C)C(=O)C1=CC2c3ccccc3C1c1ccccc12 |

| IC50 | SMILES |
| --- | --- |
| 29 µM | CC(=O)C1C(=O)Nc2ccccc21 (configuration not stated) |
| 29 µM | Cc1c(O)noc1-c1ccccc1 |
| 68 µM | CCCCCCCCCCCOCCOCCOCCOCCOCCO |
| 782 µM | CCCCCCCCCC[N+](C)(C)CCCS(=O)(=O)[O-] |
| 65 µM | CCCCCCCCCCCCCCCC[N+](C)(C)CCCS(=O)(=O)[O-] |
| 233 µM | CCCCCCCCCCO[C@@H]1O[C@H](CO)[C@@H](O)[C@H](O)[C@H]1O |
| 3 µM | COc1cc(NC(C)CCCN)c2nccc(C)c2c1OCc1ccc(C(F)(F)F)cc1 (configuration not stated) |
| 2 µM | COc1cc(NC(C)CCCN)c2nccc(C)c2c1OCc1cccc(C(F)(F)F)c1 (configuration not stated) |
| 5 µM | COc1cc(NC(C)CCCN)c2nccc(C)c2c1OCCCCCc1ccccc1 (configuration not stated) |
| 4 µM | O=C1Nc2ccccc2/C1=C/C(=O)c1ccc(Br)cc1 |
| 1 µM | O=C1Nc2ccccc2/C1=C/C(=O)c1ccc(F)cc1 |
| 17 µM | O=C1NC(=S)S/C1=C1\C(=O)Nc2ccccc21 |
| 174 µM | COc1cc(NC(C)CCCN)c2nccc(C)c2c1OCCCCc1ccccc1 (configuration not stated) |
| 5 µM | COc1cc(NC(C)CCCN)c2nccc(C)c2c1OCCCCCc1ccccc1C(F)(F)F (configuration not stated) |
| 2 µM | COc1cc(NC(C)CCCN)c2nccc(C)c2c1OCCCCCc1ccc(C(F)(F)F)cc1 (configuration not stated) |
| 38 µM | CCCCCCOc1c(OC)cc(NC(C)CCCN)c2nc(OC)c(C)cc12 (configuration not stated) |
| 19 µM | O=C1NC(=O)/C(=C2/C(=O)Nc3ccccc32)S1 |
| 3 µM | COc1cc(NC(C)CCCN)c2nccc(C)c2c1OCCCCCc1cccs1 (configuration not stated) |
| 22 µM | COc1cc(NC(C)CCCN)c2nccc(C)c2c1OCCCCCc1c(C)cccc1C (configuration not stated) |
| 38 µM | N/C(=N\O)c1cc(O)c(O)c(O)c1 |
| 23 µM | N/C(=N\O)c1ccc(O)c(O)c1 |
| 589 µM | N/C(=N\O)c1cc(O)cc(O)c1 |
| 2010 µM | COc1cc(/C(N)=N/O)cc(OC)c1OC |

| IC50 | SMILES |
| --- | --- |
| 301 µM | CC(=O)C(N)c1cc(O)c(O)c(O)c1 (configuration not stated) |
| 37 µM | O=C1Nc2ccccc2/C1=C\c1ccc(Cl)cc1 |
| 57 µM | C/N=C/c1c(O)[nH]c2ccccc12 |
| 20 µM | CC1(C)CCc2c(c3ccccc3c3nc4ccccc4nc23)O1 |
| 20 µM | C=CCC1Cc2c(c3ccccc3c3nc4ccccc4nc23)OC1(C)C (configuration not stated) |
| 2 µM | CC1(C)Oc2c(c3nc4ccccc4nc3c3ccccc23)CC1I (configuration not stated) |
| 4 µM | NC1=NC(c2cccc(Oc3ccc(Cl)cc3)c2)N(c2cccc(Cl)c2)C(N)=N1 (configuration not stated) |
| 9 µM | NC1=NC(c2cccc(OCCCOc3cc(Cl)c(Cl)cc3Cl)c2)N(c2cccc(Cl)c2)C(N)=N1 (configuration not stated) |
| 3 µM | CCCCCCC1(C)N=C(N)N=C(N)N1c1cccc(Cl)c1 (configuration not stated) |
| 7 µM | NC1=NC(c2ccc(Oc3ccccc3)cc2)N(c2ccc(Cl)cc2)C(N)=N1 (configuration not stated) |
| 4 µM | NC1=NC(c2cccc(Oc3ccccc3)c2)N(c2cccc(Cl)c2)C(N)=N1 (configuration not stated) |
| 3 µM | NC1=NC(c2ccc(Oc3ccccc3)cc2)N(c2cccc(Cl)c2)C(N)=N1 (configuration not stated) |
| 6 µM | NC1=NC(c2cccc(Oc3cc(Cl)cc(Cl)c3)c2)N(c2cccc(Cl)c2)C(N)=N1 (configuration not stated) |
| 4 µM | O=C1Nc2ccccc2/C1=C/C(=O)c1ccccc1 |
| 92 µM | CCN(CC)CCCC(C)Nc1ccncc1 (configuration not stated) |
| 6 µM | Nc1nc(N)c(-c2cccc(Cl)c2)c(CCCc2ccccc2)n1 |
| 3 µM | CCc1nc(N)nc(N)c1Cc1ccc(OCc2ccccc2)c(OCc2ccccc2)c1 |
| 6 µM | O=C(NO)c1cccc(O)c1O |
| 6 µM | CC1(C)Oc2c(c3nc4ccccc4nc3c3ccccc23)CC1S(=O)(=O)O (configuration not stated) |
| 9 µM | CCc1nc(N)nc(N)c1-c1cccc(Cl)c1 |
| 3 µM | Cc1nc(N)nc(N)c1Cc1ccc(OCc2ccccc2)c(OCc2ccccc2)c1 |
| 9 µM | CC(C)=CCc1c(O)c2ccccc2c2nc3ccccc3nc12 |
| 200 µM | CCCCCCCCCCC(O)(P(=O)(O)O)P(=O)(O)O |

| IC50 | SMILES |
| --- | --- |
| 6 µM | CCCCCC(O)(P(=O)(O)O)P(=O)(O)O |
| 200 µM | CC(C)(C)c1cc(NC(P(=O)(O)O)P(=O)(O)O)cc(C(C)(C)C)c1 |
| 200 µM | O=P(O)(O)C(Nc1cccnc1)P(=O)(O)O |
| 32 µM | CC1C2c3ccccc3C(c3ccccc32)C1C(N)=O (configuration not stated) |
| 3 µM | CN(C)CC1=C(CN(C)C)C2c3ccccc3C1c1ccccc12 |
| 21 µM | CC1C2c3ccccc3C(c3ccccc32)C1CN(C)C (configuration not stated) |
| 1 µM | NNC(=O)c1ccc(N2CCN(c3ccc(C(=O)NN)cc3)CC2)cc1 |
| 1 µM | NC1=NC(c2ccccc2)N(c2cccc(Cl)c2)C(N)=N1 (configuration not stated) |
| 41 µM | CCN(CC)Cc1cc(Nc2ccnc3cc(Cl)ccc23)cc(-c2ccc(Cl)cc2)c1F |
| 4 µM | O=C1Nc2ccccc2/C1=C\c1ccc(C(F)(F)F)cc1 |
| 21 µM | O=C1Nc2ccccc2/C1=C\C1CCCCN1 (configuration not stated) |
| 42 µM | CCOC(=O)/C(C#N)=C1/C(=O)Nc2ccccc21 |
| 17 µM | O=C1Nc2ccccc2/C1=C\c1c(Cl)cccc1Cl |
| 3 µM | CCCOc1ccc(C2N=C(N)N=C(N)N2c2cccc(Cl)c2)cc1 (configuration not stated) |
| 3 µM | NC1=NC(c2cccc(Oc3cccc(C(F)(F)F)c3)c2)N(c2cccc(Cl)c2)C(N)=N1 (configuration not stated) |
| 1 µM | CN(C)c1ccc(Nc2c3ccccc3nc3ccccc23)cc1 |
| 4 µM | NC1=NC(c2cccc(Oc3ccc(Cl)cc3)c2)N(c2ccc(Cl)cc2)C(N)=N1 (configuration not stated) |
| 8 µM | NC1=NC(c2cccc(OCc3ccccc3)c2)N(c2cccc(Cl)c2)C(N)=N1 (configuration not stated) |
| 1 µM | COc1ccc(Nc2c3ccc(N)cc3nc3cc(N)ccc23)cc1 |
| 1 µM | CC[N+](CC)(CC)CCCCCCCC[N+](CC)(CC)CC |
| 3 µM | O=C1Nc2ccc(Br)cc2/C1=C/C(=O)c1ccccc1 |
| 1 µM | CN(C)Cc1ccc(Nc2c3ccc(Cl)cc3nc3cc(Cl)ccc23)cc1 |
| 7 µM | NS(=O)(=O)c1ccc(Nc2c3ccc(Cl)cc3nc3cc(Cl)ccc23)cc1 |

| IC50 | SMILES |
| --- | --- |
| 3 µM | Cc1ccc(C(=O)/C=C2\C(=O)Nc3ccc(Br)cc32)cc1 |
| 16 µM | O=C(NO)c1ccc(O)c(O)c1 |
| 19 µM | Oc1ccc(Nc2ccnc3cc(Cl)ccc23)cc1 |
| 1 µM | CS(=O)(=O)Nc1ccc(Nc2c3ccc(N)cc3nc3cc(N)ccc23)cc1 |
| 1 µM | CCCCCCCCCCCC(O)(P(=O)(O)O)P(=O)(O)O |
| 1 µM | c1ccc(N2CCN(c3ccccc3)C2c2ccc(N3CCN(c4ccc(C5N(c6ccccc6)CCN5c5ccccc5)cc4)CC3)cc2)cc1 |
| 79 µM | CC1C2c3ccccc3C(c3ccccc32)C1C(=O)Nc1cccnc1 (configuration not stated) |
| 200 µM | O=P(O)(O)C(Nc1ccc(I)cn1)P(=O)(O)O |
| 200 µM | O=P(O)(O)C(NCCCc1ccccc1)P(=O)(O)O |
| 200 µM | CCCCOc1ccc(NC(P(=O)(O)O)P(=O)(O)O)cc1 |
| 1 µM | CCOC(=O)c1ccc(N2CCN(c3ccc(C(=O)OCC)cc3)CC2)cc1 |
| 1 µM | CNc1ccc(Nc2c3ccccc3nc3cc(Cl)ccc23)cc1 |
| 134 µM | CCN(CC)Cc1cc(Nc2ccncc2)ccc1O |
| 1 µM | CN(C)c1ccc(Nc2c3ccccc3nc3cc(Cl)ccc23)cc1 |
| 200 µM | Cc1cc(C)nc(NC(P(=O)(O)O)P(=O)(O)O)c1 |
| 1 µM | CCCCCCCCCC(O)(P(=O)(O)O)P(=O)(O)O |
| 200 µM | CCCCCCC(CCCC)C(O)(P(=O)(O)O)P(=O)(O)O (configuration not stated) |
| 4 µM | CCCCCCC(O)(P(=O)(O)O)P(=O)(O)O |
| 200 µM | Cc1cccc(NC(P(=O)(O)O)P(=O)(O)O)n1 |
| 200 µM | O=P(O)(O)C(Nc1ccc(Cl)nc1)P(=O)(O)O |
| 1000 µM | CO[C@H]1O[C@@H]2O[C@@]3(C)CC[C@H]4[C@H](C)CC[C@@H]([C@H]1C)[C@@]24OO3 |
| 1 µM | c1cc(N2CCN(c3ccc(C4OCCO4)cc3)CC2)ccc1C1OCCO1 |

| SMILES | IC50 |
| --- | --- |
| Cc1nc2cnncc2n1-c1ccc(Cl)cc1C(=O)c1ccccc1Cl | 1 µM |
| CCOC(=O)C1C2c3ccccc3C(c3ccccc32)C1C(=O)N(C)C (configuration not stated) | 33 µM |
| CN(C)C(=O)C1C2c3ccccc3C(c3ccccc32)C1C(=O)O (configuration not stated) | 36 µM |
| O=C(O)C1C2c3ccccc3C(c3ccccc32)C1CBr (configuration not stated) | 40 µM |
| CCN(CC)Cc1cc(Nc2ccnc3cc(Cl)ccc23)ccc1O | 15 µM |
| CN(C)C1CC2c3ccccc3C1c1ccccc12 (configuration not stated) | 9 µM |
| CCOC(=O)C1C2c3ccccc3C(c3ccccc32)C1N(C)C (configuration not stated) | 30 µM |
| CN(C)C1C2c3ccccc3C(c3ccccc32)C1C(=O)O (configuration not stated) | 50 µM |
